These results are taken from ChEMBL document CHEMBL1133436 (Bioorg Med Chem Lett, 2000).

Structures are written as SMILES.

Assay [1] deals with T1, Alpha-2A adrenergic receptor (Homo sapiens, UniProt P08913).
T1 sequence (P08913 whole entry): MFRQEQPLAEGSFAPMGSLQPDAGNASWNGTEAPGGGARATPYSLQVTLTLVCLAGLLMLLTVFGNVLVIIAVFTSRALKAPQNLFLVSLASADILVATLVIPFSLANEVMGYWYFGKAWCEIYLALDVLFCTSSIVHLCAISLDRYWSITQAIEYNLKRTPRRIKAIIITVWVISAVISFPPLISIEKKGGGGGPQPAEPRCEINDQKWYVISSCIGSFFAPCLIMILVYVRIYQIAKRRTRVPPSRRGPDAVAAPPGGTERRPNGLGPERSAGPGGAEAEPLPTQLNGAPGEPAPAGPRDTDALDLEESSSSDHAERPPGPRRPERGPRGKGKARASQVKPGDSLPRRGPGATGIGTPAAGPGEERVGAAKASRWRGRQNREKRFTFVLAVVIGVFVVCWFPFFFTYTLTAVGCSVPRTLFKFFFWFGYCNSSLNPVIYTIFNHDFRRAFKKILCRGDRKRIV
The assay is described as follows: Binding affinity against human Alpha-2A adrenergic receptor expressed stably in CHO cells using [3H]rauwolscine as radioligand. The format is cell-based.

For another assay, the species on record is Homo sapiens. The experiment in a line: Selectivity for alpha-2a to that of alpha2b determined by their binding affinity ratios.
Assay [2] addresses T2, Alpha-2B adrenergic receptor (Homo sapiens, UniProt P18089).
T2 sequence (P18089 whole entry): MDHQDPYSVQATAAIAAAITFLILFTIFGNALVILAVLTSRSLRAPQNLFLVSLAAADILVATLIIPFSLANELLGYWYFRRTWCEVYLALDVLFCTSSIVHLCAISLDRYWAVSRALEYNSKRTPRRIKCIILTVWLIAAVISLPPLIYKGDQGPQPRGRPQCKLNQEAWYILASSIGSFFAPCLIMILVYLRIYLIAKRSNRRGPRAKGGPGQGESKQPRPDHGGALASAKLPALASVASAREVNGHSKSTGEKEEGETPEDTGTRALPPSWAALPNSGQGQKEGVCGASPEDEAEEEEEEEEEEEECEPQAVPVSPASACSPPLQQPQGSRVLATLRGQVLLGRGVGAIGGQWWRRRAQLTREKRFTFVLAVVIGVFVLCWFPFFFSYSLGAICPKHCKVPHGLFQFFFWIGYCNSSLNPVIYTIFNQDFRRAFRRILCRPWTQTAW
The experiment in a line: biochemical. The class given is cell-based, CHO.

For `O=C(NCCCCCCCCCCCCNC(=O)[C@@H]1[C@H]2C[C@H]3c4[nH]c5ccccc5c4CCN3C[C@@H]2CC[C@@H]1O)[C@@H]1[C@H]2C[C@H]3c4[nH]c5ccccc5c4CCN3C[C@@H]2CC[C@@H]1O`, the Ki in assay [1] was determined as 1.18 nM; in assay [2], 18.5 nM. Besides, the Selectivity in the assay listed under Homo sapiens was 15.7.

`O=C(NCCCCCCCCCNC(=O)[C@@H]1[C@H]2C[C@H]3c4[nH]c5ccccc5c4CCN3C[C@@H]2CC[C@@H]1O)[C@@H]1[C@H]2C[C@H]3c4[nH]c5ccccc5c4CCN3C[C@@H]2CC[C@@H]1O`: the Ki stood at 1.25 nM in assay [1] and 44.7 nM in assay [2]. For the same compound, the Selectivity in the assay listed under Homo sapiens was determined as 35.8.

For `O=C(NCCCCCCCCCCNC(=O)[C@@H]1[C@H]2C[C@H]3c4[nH]c5ccccc5c4CCN3C[C@@H]2CC[C@@H]1O)[C@@H]1[C@H]2C[C@H]3c4[nH]c5ccccc5c4CCN3C[C@@H]2CC[C@@H]1O`, the Selectivity in the assay listed under Homo sapiens was 47.7.

As to `O=C(NCCCCCCCCNC(=O)[C@@H]1[C@H]2C[C@H]3c4[nH]c5ccccc5c4CCN3C[C@@H]2CC[C@@H]1O)[C@@H]1[C@H]2C[C@H]3c4[nH]c5ccccc5c4CCN3C[C@@H]2CC[C@@H]1O`, in the assay listed under Homo sapiens, the Selectivity amounted to 60.5.

As a reminder, the Ki is the dissociation constant of the complex between target and ligand, obtained from inhibition or displacement. The low end stands for a stronger hold on the target, the high end for a looser hold on the target.
